The source of these data is patent US11951167B2, “Targeted liposomes” (GEORGETOWN UNIVERSITY, priority 2012, dated 2024).

pIC50: −log10 of the molar value.

The subject of assay [1] is KMS-11 cells. Nature of the assay: Cell viability, MEL or scL-MEL combined with scL-p53. The format is cell-based. Conditions: Homo sapiens, scL-p53 DNA dose 0.2 ug/4×10^5 cells in the combination. The procedure:
Cells (4×10^5 per tube) were transfected with different scL/MEL complexes containing increasing doses of MEL. The scL-p53 was prepared as previously described (U.S. Pat. No. 7,780,822). The DNA dose used for all transfections was 0.2 ug/4×10^5 cells. […] The IC20 was used to allow detection of an additive or synergistic effect of the two treatments. The KMS-11 cells were transfect with Free (unencapsulated) MEL alone, scL-MEL alone, or the combination of Free (unencapsulated) or scL encapsulated MEL plus scL-p53 (FIG. 37).

Assay [2] concerns KMS-11 cells. Nature of the assay: Cell viability by Trypan Blue counting, MEL formulations. The format is cell-based. Conditions: Homo sapiens, KMS-11, 48 h. As to the method:
The size of the scL-MEL nanocomplex was 45 and 57 nm, respectively.
For these in vitro cell survival studies, the human multiple myeloma cell line KMS-11 was used. These are non-adherent cells and grow in suspension. 4×10^5 cells in 2.6 ml of serum free media were incubated in a sterile 50 ml centrifuge tube with 400 ul of the scL-MEL (at either ratio) or unencapsulated MEL for one hour. Following this incubation, the medium was supplemented with fetal bovine serum to a final concentration of 10% (0.3 ml/tube). After incubation for an additional 47 h, cell viability was determined by Trypan Blue counting of the cells. To accomplish this, one part trypan blue solution is mixed with 1 part cell suspension (1:1 dilution) in a 2 mL eppendorf tube (e.g. 200 μL trypan blue is mixed with 200 μL cell suspension). Using a hemacytometer and a microscope the number of viable cells (unstained) and dead cells (stained) are counted. The average number of cells per 0.1 mm^3 is calculated and the number of cells per mL determined. The percent of viable cells is calculated as follows: Viable Cells %=(Number of viable cells/Number of Cells)*100
This complex was subsequently lyophilized and the samples stored in a desiccator at 2-8° C. After one week of storage the lyophilized scL-Mel complex was reconstituted with endotoxin free water and used to transfect KMS-11 cells as described above. […]

For a further assay, the target named is T1, topoisomerase I (Homo sapiens, UniProt P11387).
T1 sequence (P11387 1-765): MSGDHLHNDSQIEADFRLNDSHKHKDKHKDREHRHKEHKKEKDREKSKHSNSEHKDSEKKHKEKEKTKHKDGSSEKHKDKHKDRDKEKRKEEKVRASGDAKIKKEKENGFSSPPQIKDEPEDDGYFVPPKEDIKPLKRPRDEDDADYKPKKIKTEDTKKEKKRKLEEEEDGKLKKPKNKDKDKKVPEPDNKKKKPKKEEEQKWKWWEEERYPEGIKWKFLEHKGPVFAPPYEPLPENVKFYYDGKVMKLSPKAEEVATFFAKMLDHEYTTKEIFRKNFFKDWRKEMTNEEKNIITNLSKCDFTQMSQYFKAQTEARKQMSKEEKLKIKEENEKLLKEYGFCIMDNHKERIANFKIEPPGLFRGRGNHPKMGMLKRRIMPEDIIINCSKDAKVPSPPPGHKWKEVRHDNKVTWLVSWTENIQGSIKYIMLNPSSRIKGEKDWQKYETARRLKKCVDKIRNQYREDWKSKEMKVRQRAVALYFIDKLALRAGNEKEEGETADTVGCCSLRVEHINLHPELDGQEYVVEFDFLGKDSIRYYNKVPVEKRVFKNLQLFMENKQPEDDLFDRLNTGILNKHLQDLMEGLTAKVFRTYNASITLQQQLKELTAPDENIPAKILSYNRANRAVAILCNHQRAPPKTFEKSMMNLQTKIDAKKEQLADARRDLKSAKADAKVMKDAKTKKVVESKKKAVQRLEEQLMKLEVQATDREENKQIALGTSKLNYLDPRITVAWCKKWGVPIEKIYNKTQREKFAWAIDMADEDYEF
Conditions: cited from earlier work.

The test system of the next assay is HT-29 cells. The assay can be described thus: XTT cell viability, IH formulations. Format: cell-based. Conditions: Homo sapiens, 24 h. The procedure:
(§1) After 24 hours, the media was replaced with serum-free medium, overlaid with 100 μL of increasing concentrations of either scL-IH nanocomplex, prepared as described above in Example 26, unliganded nanocomplex (L-IH), free IH or LipA only in serum-free medium. The cells were, incubated for 5 hours and then supplemented with FBS. […] The IC50 was interpolated from the graph of the log of drug concentration versus the fraction of surviving cells.
For orientation: Formazan colour is commonly taken as a measure of viable cells.

The next assay has as its system PANC-1 cells. The assay can be described thus: XTT cell viability, IH formulations. The format is cell-based, human. As to the method:
as §1

For a further assay, the system named is Hep G2 cells. The assay can be described thus: XTT cell viability, IH formulations. Format: cell-based, human. The procedure: as §1
A further assay deals with HT-29 xenograft tumors. The assay can be described thus: Anti-tumor efficacy in subcutaneous colon xenografts. The format is in vivo, athymic nude mice. As to the method:
In our initial in vivo experiment, we assessed the anti-tumor efficacy of various molar ratios of liposome to IH. Tumors of human colon tumor cell line HT-29 were induced in female athymic nude mice (5-10 animals/group) by the subcutaneous injection of 3.12×10^5 cells/site/mouse suspended in Matrigel® collagen basement solution. When the tumors reached ˜100 mm^3 treatment was initiated. […] Groups of animals were also treated with Free IH, scL without IH, the nanocomplex without the targeting moiety (Lip-IH), as well as a group of untreated mice. The mice were IV injected twice weekly to a total of 15 injections. […] Thus, in the remainder of the studies the optimal ratio of 1:1 (Liposome:IH) was used in preparation of the scL-IH nanocomplex. […] Here also the mice received a total of 15 intravenous injections.

What is called pIC50 is −log10 of the IC50, conventionally taken in molar units. As for `N[C@@H](Cc1ccc(N(CCCl)CCCl)cc1)C(=O)O` [MEL, melphalan], the figures for the pIC50 in the assay with KMS-11 cells [1] and in the assay on KMS-11 cells [2] were 4.96 and 4.75, respectively.
On to `CCc1c2c(nc3ccc(O)cc13)-c1cc3c(c(=O)n1C2)COC(=O)[C@]3(O)CC` [SN-38, 7-ethyl-10-hydroxy-camptothecin], for which, at topoisomerase I, the “potency relative to parent compound irinotecan” value was “One thousand-fold more potent”.
In the assay with HT-29 cells, `CCc1c2c(nc3ccc(OC(=O)N4CCC(N5CCCCC5)CC4)cc13)-c1cc3c(c(=O)n1C2)COC(=O)[C@]3(O)CC` [IH, Irinotecan] had a pIC50 of under 5.00. In addition, the “cell kill at the low doses tested” value in the assay on PANC-1 cells and with Hep G2 cells was “no effect” each time. Also, the tumor growth entry was “minimal effect on tumor growth” in the assay with HT-29 xenograft tumors (first experiment, IH 10 mg/kg i.v. twice weekly, 15 injections, Liposome:IH 1:1 for the complex) and “only minimal effect” in the assay on HT-29 xenograft tumors (second experiment (fresh vs lyophilized), IH 10 mg/kg, Liposome:IH 1:1, 15 injections).
